ChEMBL document CHEMBL3769388, “Optimization of a Dicarboxylic Series for in Vivo Inhibition of Citrate Transport by the Solute Carrier 13 (SLC13) Family” (J Med Chem, 2016)

Columns and labels:
[1] = biological target: T1, Na(+)/citrate cotransporter (Homo sapiens, UniProt Q86YT5); experiment: Inhibition of NaCT (unknown origin) expressed in HEK293 cells assessed as inhibition of [14C]citrate uptake by microbeta plate reader analysis; format: cell-based
[2] = Fraction unbound in Wistar Han rat by equilibrium dialysis method; format: ADME
[3] = Total plasma clearance in Wistar Han rat at 1 mg/kg, iv by LC-MS/MS analysis; format: ADME, organism-based
[4] = Renal clearance in Wistar Han rat at 1 mg/kg, iv by LC-MS/MS analysis; format: ADME, organism-based, Kidney; conditions: in vivo
[5] = Volume of distribution at steady state in Wistar Han rat at 1 mg/kg, iv by LC-MS/MS analysis; format: ADME, organism-based; conditions: in vivo, read-out: Vdss
[6] = Half life in Wistar Han rat at 1 mg/kg, iv by LC-MS/MS analysis; format: ADME, organism-based; conditions: in vivo
[7] = AUC(0 to t) in Wistar Han rat at 5 mg/kg, po by LC-MS/MS analysis; format: ADME, organism-based; conditions: in vivo
[8] = biological target: T1, Na(+)/citrate cotransporter; experiment: Inhibition of NaCT in human hepatocytes assessed as [14C]-citrate uptake after 30 mins by scintillation counting method; format: cell-based, Hepatocyte
[9] = biological target: T2, Solute carrier family 13 member 2 (Homo sapiens, UniProt Q13183); experiment: Inhibition of NaDC1 (unknown origin) expressed in HEK293 cells assessed as inhibition of [14C]citrate uptake by microbeta plate reader analysis; format: cell-based; conditions: read-out: IC50
T2 sequence (Q13183 whole entry): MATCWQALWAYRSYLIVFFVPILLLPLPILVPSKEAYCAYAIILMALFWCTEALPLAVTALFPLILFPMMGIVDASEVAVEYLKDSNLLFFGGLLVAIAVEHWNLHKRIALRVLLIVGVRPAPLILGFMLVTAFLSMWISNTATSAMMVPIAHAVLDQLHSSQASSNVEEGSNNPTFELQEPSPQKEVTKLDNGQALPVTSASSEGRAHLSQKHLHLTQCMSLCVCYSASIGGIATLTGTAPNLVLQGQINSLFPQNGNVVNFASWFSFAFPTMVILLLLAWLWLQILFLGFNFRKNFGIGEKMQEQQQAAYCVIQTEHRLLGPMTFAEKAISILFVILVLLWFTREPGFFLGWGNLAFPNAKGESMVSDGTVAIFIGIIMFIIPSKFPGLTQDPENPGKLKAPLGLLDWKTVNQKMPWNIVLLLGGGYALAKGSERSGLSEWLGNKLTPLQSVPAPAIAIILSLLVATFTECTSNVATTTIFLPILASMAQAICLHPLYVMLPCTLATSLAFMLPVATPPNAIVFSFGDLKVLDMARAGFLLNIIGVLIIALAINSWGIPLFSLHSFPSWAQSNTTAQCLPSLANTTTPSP

[10] = Passive permeability in MDCK cells; format: ADME, cell-based, Canis lupus familiaris; conditions: dog
[11] = Clearance in human hepatocytes assessed per 10^6 cells; format: ADME, cell-based, Hepatocyte; conditions: read-out: CLH

T1 sequence (Q86YT5 whole entry): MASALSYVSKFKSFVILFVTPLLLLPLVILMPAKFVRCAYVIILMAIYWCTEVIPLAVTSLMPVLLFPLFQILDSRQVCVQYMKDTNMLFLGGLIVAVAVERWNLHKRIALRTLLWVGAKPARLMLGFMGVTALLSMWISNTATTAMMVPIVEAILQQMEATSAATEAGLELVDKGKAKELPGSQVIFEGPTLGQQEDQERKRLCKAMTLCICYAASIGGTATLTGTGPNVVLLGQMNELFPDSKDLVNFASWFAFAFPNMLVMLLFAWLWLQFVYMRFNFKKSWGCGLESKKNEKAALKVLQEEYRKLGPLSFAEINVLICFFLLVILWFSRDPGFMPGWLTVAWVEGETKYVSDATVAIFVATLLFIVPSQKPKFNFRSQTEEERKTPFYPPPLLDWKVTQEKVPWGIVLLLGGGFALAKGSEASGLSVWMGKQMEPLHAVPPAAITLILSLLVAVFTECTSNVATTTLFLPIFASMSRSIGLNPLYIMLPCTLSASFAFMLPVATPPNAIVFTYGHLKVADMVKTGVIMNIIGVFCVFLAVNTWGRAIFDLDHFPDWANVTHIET

IC50 ([1]; read-out: IC50)	fraction unbound [2]	clearance [3]	CL renal [4]	Vd [5]	half-life [6]	AUC(0-t) [7]	SMILES	also measured
1650 nM	–	–	–	–	–	–	COc1ccc(C)cc1CCC(O)(CC(=O)O)C(=O)O (racemic)	–
> 18000 nM	0.058	9.9 mL/min/kg	2.8 mL/min/kg	0.2 L/kg	1 h	499 ng·h/mL	COc1ncc(C)cc1CC[C@](O)(CC(=O)O)C(=O)O	–
650 nM	–	–	–	–	–	–	COc1ncc(C)cc1CCC(O)(CC(=O)O)C(=O)O (racemic)	IC50 ([1]; read-out: pIC50 (converted)): 316 nM
110 nM	–	–	–	–	–	–	CCOc1ncccc1CCC(O)(CC(=O)O)C(=O)O (racemic)	–
330 nM	–	–	–	–	–	–	CC(C)Oc1ncccc1CCC(O)(CC(=O)O)C(=O)O (racemic)	–
> 25000 nM	–	–	–	–	–	–	CCOc1ncccc1CC[C@](O)(CC(=O)O)C(=O)O	IC50 [8]: > 30000 nM
–	0.073	8.5 mL/min/kg	1.9 mL/min/kg	0.45 L/kg	1.2 h	1850 ng·h/mL	CC(C)(C)c1ccc(CCC(O)(CC(=O)O)C(=O)O)cc1 (racemic)	–
190 nM	–	–	–	–	–	–	CCOc1ncc(C)cc1CCC(O)(CC(=O)O)C(=O)O (racemic)	–
3370 nM	–	–	–	–	–	–	COc1ncccc1CCC(O)(CC(=O)O)C(=O)O (racemic)	–
110 nM	0.086	6.7 mL/min/kg	1.8 mL/min/kg	0.13 L/kg	0.9 h	2650 ng·h/mL	CCOc1ncccc1CC[C@@](O)(CC(=O)O)C(=O)O	IC50 [8]: 330 nM
> 17000 nM	–	–	–	–	–	–	O=C(O)CC(O)(CCc1ccccc1)C(=O)O (racemic)	–
–	0.054	4.5 mL/min/kg	0.5 mL/min/kg	0.24 L/kg	1 h	2570 ng·h/mL	CC(C)(C)c1ccc(CC[C@@](O)(CC(=O)O)C(=O)O)cc1	IC50 [9]: > 100000 nM; Papp [10]: 1 ×10⁻⁶ cm/s; hepatocyte CLint [11]: < 6 µL/min/1e6 cells
